Test system: green peach aphid (Myzus persicae)
Test: Myzus persicae test (cabbage leaf dip)
Format: in vivo
Settings: cabbage leaves (Brassica oleracea) dipped
Source text: The expected action for a given combination of two active compounds can be calculated according to S. R. Colby, Weed, 15 (1967), 20-22): […]
If • X is the kill rate, expressed as a percentage of the untreated control, when employing active compound A at an application rate of m g/ha or in a concentration of m ppm, • Y is the kill rate, expressed as a percentage of the untreated control, when employing active compound B at an application rate of n g/ha or in a concentration of n ppm and • E is the kill rate, expressed as a percentage of the untreated control, when employing active compounds A and B at application rates of m and n g/ha or in a concentration of m and n ppm, then
If the actual insecticidal kill rate exceeds the calculated value, the action of the combination is superadditive, i.e. a synergistic effect is present. In this case, the actually observed kill rate must exceed the value calculated using the above formula for the expected kill rate (E).
After the desired period of time, the kill in % is determined. 100% means that all animals have been killed; 0% means that none of the animals have been killed. […]
After the desired period of time, the kill in % is determined. […] The determined kill ratios are entered into Colby's formula (see page 42).

SMILES	Kill rate in % after 1d, found (4 ppm active compound) [%]	Kill rate in % after 1d, found (0.8 ppm active compound) [%]
Cc1cc(Cl)cc(C(=O)NC(C)C)c1NC(=O)c1cc(C(F)(F)F)nn1-c1ncccc1Cl [(I-1-9)]	0	
CCOP(=S)(OCC)Oc1nc(Cl)c(Cl)cc1Cl [(2-2) chlorpyrifos, chlorpyrifos]		65

From patent US8865683B2, “Active compound combinations having insecticidal properties” (priority 2003, dated 2014)
